Assay results reported in article PMC10111022, “Comparison of pharmacological inhibitors of lysine-specific demethylase 1 in glioblastoma stem cells reveals inhibitor-specific efficacy profiles” (Frontiers in Neurology, 2023).

Tests used:
MDA-GSC 262 = test: Cell viability dose response (IC50), MDA-GSC 262; assay type: cell-based; details: Homo sapiens, mean of three independent experiments
Procedure: (§1) MDA-GSCs were plated at 50,000 cells/well into 12-well plates at and allowed to grow for 5 days until neurospheres were formed. The cells were then treated with either TCP, GSK-LSD1, or RN-1 at various concentrations for 5 days. Next, the cells were collected and neurospheres were dissociated with Accutase (BioLegend; San Diego, CA). Cell viability was determined using a trypan dye exclusion assay and read with the Vi-Cell XR Cell Viability Analyzer (Beckman Coulter; Brea, CA). NHAs were plated at 50,000 cells/well into 12-well plates and allowed to adhere overnight. The following day, NHAs were treated with the LSD1 inhibitors. After 5 days, the cells were detached using TrypLE and assessed with the trypan blue dye exclusion assay.
(§2) The alamarBlue cell viability (Bio-Rad; Hercules, CA) was performed on the MDA-GSCs according to the manufacturer’s protocol. The cells were plated at 5,000 cell/well into a 96-well plate and allowed to grow for 5 days. After 5 days, the alamarBlue reagent was added and fluorescence was measured with the Synergy 2 (BioTek Instruments; Winooski, VT) plate reader according to the manufacturer’s protocol.

MDA-GSC 20 = test: Cell viability dose response (IC50), MDA-GSC 20; assay type: cell-based; details: Homo sapiens, mean of three independent experiments
Procedure: as §1, §2

MDA-GSC 17 = test: Cell viability dose response (IC50), MDA-GSC 17; assay type: cell-based; details: Homo sapiens, mean of three independent experiments
Procedure: as §1, §2

MDA-GSC 6–27 = test: Cell viability dose response (IC50), MDA-GSC 6–27; assay type: cell-based; details: Homo sapiens, mean of three independent experiments
Procedure: as §1, §2

MDA-GSC 7–11 = test: Cell viability dose response (IC50), MDA-GSC 7–11; assay type: cell-based; details: Homo sapiens, mean of three independent experiments
Procedure: as §1, §2

MDA-GSC 23 = test: Cell viability dose response (IC50), MDA-GSC 23; assay type: cell-based; details: Homo sapiens, mean of three independent experiments
Procedure: as §1, §2

MDA-GSC 8–11 = test: Cell viability dose response (IC50), MDA-GSC 8–11; assay type: cell-based; details: Homo sapiens, mean of three independent experiments
Procedure: as §1, §2

NHA = test: Cell viability dose response (IC50), normal human astrocytes; assay type: cell-based
Procedure: as §1, §2

MDA-GSC lines = test: Cell proliferation of MDA-GSCs tracked over 5 days; assay type: cell-based, Human; details: 400 μM, after 5 days; all MDA-GSC lines apart from MDA-GSC311
Procedure: as §2
Figure 3 Effects of GSK-LSD1 on GSCs cell proliferation and neurosphere formation. (A–I) Cell proliferation of MDA-GSCs was tracked over 5 days after treatment with GSK-LSD1 at 400 μM. Day five data was analyzed with a student’s t-test. ns = p > 0.05, *p ≤ 0.05, **p ≤ 0.01, ***p ≤ 0.001, ****p ≤ 0.0001. (J) Bar graphs showing the number of neurospheres formed by MDA-GSCs after treatment with GSK-LSD1. Grouped data was analyzed using a two-way ANOVA with the Šídák multiple comparisons test. ns = p > 0.05, ***p ≤ 0.001, ****p ≤ 0.0001.

[1] = Complete blood count at day 50 in xenograft mice; assay type: in vivo, athymic nude mice
Procedure: Once confirmation of intracranial tumor engraftment at 7 days post-engraftment, the mice were equally randomized into groups to receive either GSK-LSD1 or the vehicle control. The mice received GSK-LSD1 1 mg/kg diluted in DMSO and PBS (5 and 95%, respectively) via intraperitoneal injection (200 μL/mouse) while the control mice received the untreated vehicle in parallel. In accordance with the approved IACUC protocol (No: 638-RN03) at MD Anderson Cancer Center, treatment continued until the mice succumbed to tumor burden and were found in a moribund condition as determined by neurological impairment (hydrocephalus, seizures, inactivity, and/or ataxia) or morbidity (hunched posture or weight loss). At this time mice were euthanized by both carbon dioxide exposure and cervical dislocation. Flow cytometric characterization of immune cell subsets was carried out in blood samples obtained from mice (four control mice and six GSK-LSD1 mice) in each group at day 50 via cardiac puncture and the sample was processed using Ficoll (GE Healthcare; Chicago, IL) centrifugation to collect the peripheral blood mononuclear cells (PBMCs). Next, PBMCs were stained with the Ghost Dye Violet (Tonbo; San Diego, CA) and then incubated with antibodies at 4°C for 25 min before analysis. The antibodies anti-NKG2D APC (Biolegend #320807), CD16-PE-Cy7 (ThermoFisher #25–0168-42), CD56-PE (BD Biosciences #345812), anti-CD3-FITC (Biolegend; #100305), CD4-PerCP (ThermoFisher #MHCD0431), anti-CD8-ACP-Cy7 (Biolegend #344713), and anti-SLAMF7-PE (eBioscience #12–2,229-42) were used in concentrations recommended per manufacturer’s instruction. Samples were washed and resuspended in FACS buffer for analysis on a Fortessa flow cytometer (BD Biosciences; Haryana, India).
Given the effect on tumor regression required almost 2 months of treatment, we sought to determine if any hematological toxicities were present from the prolonged exposure to LSD1 inhibition. At day 50, a subset of mice from each group were sacrificed and blood was collected for evaluation with a Complete Blood Count (CBC) to compare different populations of blood cells. […] However, the platelet count in the GSK-LSD1 receiving mice is higher compared to the control and may be secondary to the underlying tumor burden (Figure 5F). The WBC differential further confirmed the absence of hematological toxicity with no difference between the GSK-LSD1 and the control group in any of the individual cell types (Figure 5G). […] In parallel, the peripheral blood mononuclear cells (PBMCs) were also isolated and probed to assess the effect of GSK-LSD1. Prior studies of LSD1 inhibition via pharmacological inhibitors prompted the assessment of GSK-LSD1 effect on different subpopulations of natural killer (NK) cells and T-cells ([26], [30]).

MDA-GSC20 = test: qPCR of resistance-related genes, MDA-GSC20; assay type: cell-based, Human; details: MDA-GSC20 (resistant)
Procedure: Total RNA was extracted using RNeasy Plus Mini Kit (Qiagen; Hilden, Germany) following the manufacturer’s protocol. cDNA was synthesized with the iScript cDNA synthesis kit (Bio-Rad; Hercules, CA), qPCR was performed using Forget-Me-Not EvaGreen qPCR kit (Biotium; Fremont, CA), and samples were analyzed with the LightCycler96 (Roche; Basel, Switzerland). Cq values were normalized to PPIA and reported as relative fold change from untreated control.

Compound: c1ccc([C@@H]2C[C@H]2NC2CCNCC2)cc1 [GSK-LSD1]
- IC50 (MDA-GSC 262): > 750 µM
- IC50 (MDA-GSC 20): > 750 µM
- IC50 (MDA-GSC 17): 253 µM
- IC50 (MDA-GSC 6–27): 598 µM
- IC50 (MDA-GSC 7–11): 606 µM
- IC50 (MDA-GSC 23): > 750 µM
- IC50 (MDA-GSC 8–11): 726 µM
- IC50 (NHA; Homo sapiens, Astrocyte, NHA, mean of three independent experiments): > 750 µM
- effect on NHA viability (NHA; NHA treated at the maximum concentration tested for each compound): minimal effect
- effect on MDA-GSC proliferation (MDA-GSC lines): Consistent anti-proliferative effects
- leukopenia or erythropenia (CBC) ([1]; day 50, 1 mg/kg intraperitoneal, vs untreated mice): no evidence of leukopenia or erythropenia
- platelet count ([1]; day 50, compared to the control): higher
- WBC differential, individual cell types ([1]; day 50, vs control group): no difference
- RBC indices ([1]; day 50, except for red cell distribution width (RDW)): largely demonstrate no effect
- expression of resistance-related genes (FTH1, RAB39B, HKDC1, FAM213A) (MDA-GSC20): increase in all four genes
